The text below walks through data of US10759905B2, “Biodegradable amphiphilic polymer, polymeric vesicles prepared therefrom, and application of biodegradable amphiphilic polymer in preparation of medicines for targeted therapy of lung cancer” (priority 2015, dated 2020).

One data set relates to A549 lung cancer cells. Description: MTT assay, toxicity of drug-loaded vesicles on A549 cells. Conditions: Homo sapiens, A549, read-out: half inhibition concentration (IC50) for A549 cells. Format: cell-based.
The subject of data set [1] is A549 subcutaneous lung cancer. Description: Anti-tumor effect in mice bearing A549 subcutaneous lung cancer. In kind it is in vivo. Conditions: i.v. on Day 0, 4, 8 and 12, DOX 10 mg/kg; Day 18. How it is done: The volumes of the tumor were measured by a vernier caliper. The tumor volume was calculated as: V=(L×W×H)/2 (wherein L was the tumor length, W was the tumor width, and H was the tumor thickness). The survival of the mice were observed up to 45 days.
The establishment of a subcutaneous A549 tumor-bearing mice model, administration via tail vein, and data collection were the same as those in Example 37.

The subject of data set [2] is orthotopic A549 lung cancer (A549-Luc). Conditions: for bioluminescence intensity of the lung tumor / tumor growth: i.v. on Days 0, 4, 8 and 12, within 16 days; for survival of the mice (all survived / all dead): orthotopic A549.
Method: Balb/C nude mice weighing approximately 18 to 20 grams (aged 4 to 6 weeks) were selected for the experiment. 5×10^6 bioluminescent A549 human lung cancer cells (A549-Luc) were directly injected in the lungs. After about 10 days, the mice were observed by an in vivo imaging system for small animals. […] From Day 0 to Day 16, the body weights of the mice were measured every four days. The bioluminescence intensity of the lung tumor in mice was monitored using an in vivo imaging system for small animals. The survival of the mice was observed up to 45 days.
The PTG-loaded cRGD/CLPs, the non-targeted self-crosslinked polymeric vesicle CLPs, Taxol, and PBS were injected into mice, respectively.
The next data set can be described thus: in vivo. To be noted: Balb/C nude, mouse, iv, 10 mg/kg.
Data set [3] concerns H460 human lung cancer cells. The data set can be described thus: MTT assay, toxicity of drug-loaded vesicles on H460 cells. In kind it is cell-based. Conditions: NCI-H460, 4 h co-cultivation, then 44 h in fresh medium. How it is done:
MTT assay was used to test the toxicity of the polymeric vesicles on H460 human lung cancer cells. […] After co-cultivation for 4 hours, the samples were aspirated and replaced with fresh medium to continue incubation for 44 hours. The subsequent addition of MTT, treatment, and measurement of absorbance were the same as those in Example 26.

The subject of data set [4] is H460 subcutaneous lung cancer. The data set can be described thus: Anti-tumor effect in mice bearing H460 subcutaneous lung cancer. In kind it is in vivo. The text has this:
The establishment of a subcutaneous H460 tumor-bearing mice model was the same as that in Example 33.

Structures can show the parent of a compound that is named as a salt.

Method for A549 lung cancer cells: The toxicity of the polymeric vesicles on A549 cells was tested by MTT assay. […] The concentrations of DOX.HCl were 0.01, 0.1, 0.5, 1, 5, 10, 20 and 40 μg/mL, respectively. The content of the targeting molecules ranged from 10%, 20% to 30%; the non-targeted drug-loaded self-crosslinked polymeric vesicle group and the free DOX.HCl group were used as control groups. After co-cultivation for 4 hours, the samples were aspirated and replaced with fresh medium to continue incubation for 44 hours.

A word on the half-life: it is the time needed for the level to fall by half in the phase considered. High values mean slow loss, low ones fast loss. Regarding `COc1cccc2c1C(=O)c1c(O)c3c(c(O)c1C2=O)C[C@@](O)(C(=O)CO)C[C@@H]3O[C@H]1C[C@H](N)[C@H](O)[C@H](C)O1` [DOX.HCl, doxorubicin hydrochloride], the IC50 with A549 lung cancer cells was 4.89 µg/mL. Moreover, in data set [1], the tumor growth entry is given as “could also inhibit the growth of tumor”. In data set [2], the “bioluminescence intensity of the lung tumor / tumor growth” value was “could also inhibit the growth of tumor” and the “survival of the mice (all survived / all dead)” value is ≤ 30 days. This molecule also had a half-life in “in vivo” of 16.2 min.
As for `CC(=O)O[C@H]1C(=O)[C@@]2(C)[C@H]([C@H](OC(=O)c3ccccc3)[C@]3(O)C[C@H](OC(=O)[C@H](O)[C@@H](NC(=O)c4ccccc4)c4ccccc4)C(C)=C1C3(C)C)[C@]1(OC(C)=O)CO[C@@H]1C[C@@H]2O` [PTX, paclitaxel], in data set [2], the “bioluminescence intensity of the lung tumor / tumor growth” value is “could also inhibit the growth of tumor” and the “survival of the mice (all survived / all dead)” value is ≤ 29 days.
Molecule `CCc1c2c(nc3ccc(OC(=O)N4CCC(N5CCCCC5)CC4)cc13)-c1cc3c(c(=O)n1C2)COC(=O)[C@]3(O)CC` [CPT.HCl, irinotecan hydrochloride] showed an IC50 in data set [3] of 3.09 µg/mL. Also, the body weight decrease in data set [4] (Day 10) is 18%; in data set [2] (Day 3), 21%. Moreover, the tumor growth entry in data set [4] (i.v., CPT.HCl, Day 18) was “could also inhibit the growth of tumor”. The “survival of the mice (all survived / all dead)” value in data set [4] (subcutaneous H460) was ≤ 28 days; in data set [2] it was ≤ 34 days. Further, the “bioluminescence intensity of the lung tumor / tumor growth” value in data set [2] was “could also inhibit the growth of tumor”.
